According to patent US6436963B1 (priority 1998, dated 2002):

Columns and labels:
Assay type in all cases: in vivo
Erysiphe graminis = assay: Powdery Mildew of Wheat (ERYSGT), protectant spray test on wheat seedlings; conditions: wheat (cultivar Monon), sprayed to run off at 100 ppm, inoculated after 24 hours
Puccinia recondita = assay: Brown Rust (PUCCRT), protectant spray test on wheat seedlings; conditions: wheat (cultivar Monon), sprayed to run off at 100 ppm, inoculated after 24 hours
Leptosphaeria nodorum = assay: Glume Blotch of Wheat (LEPTNO), protectant spray test on wheat seedlings; conditions: wheat (cultivar Monon), sprayed to run off at 100 ppm, inoculated after 24 hours
Phytophthora infestans = conditions: tomatoes (cultivar Rutgers), sprayed to run off at 100 ppm, inoculated after 24 hours

Row | Compound | ERYSGT control of plant disease (Erysiphe graminis) | PUCCRT control of plant disease (Puccinia recondita) | LEPTNO control of plant disease (Leptosphaeria nodorum) | PHYTIN control of plant disease (Phytophthora infestans)
1 | CNC(=O)C(=NOC)c1ccccc1COc1ncc(C(O)(COS(=O)(=O)c2ccc(C)cc2)c2ccccc2)cc1Cl (stereo not shown) [Example 94] | ++ (++ = 75-100% control of plant disease) | ++ (++ = 75-100% control of plant disease) | ++ (++ = 75-100% control of plant disease) | ++ (++ = 75-100% control of plant disease)
2 | CNC(=O)C(=NOC)c1ccccc1COc1ncc(C(OC(=O)c2ccccc2)c2ccccc2)cc1Cl (racemic) [Example 29] | + (+ = 25-74% control of plant disease) | ++ (++ = 75-100% control of plant disease) | ++ (++ = 75-100% control of plant disease) | + (+ = 25-74% control of plant disease)
3 | CNC(=O)C(=NOC)c1ccccc1COc1ncc(C(O)c2ccccc2F)cc1Cl (racemic) [Example 65] | ++ (++ = 75-100% control of plant disease) | ++ (++ = 75-100% control of plant disease) | ++ (++ = 75-100% control of plant disease) | ++ (++ = 75-100% control of plant disease)
4 | CNC(=O)C(=NOC)c1ccccc1COc1ncc(C(OC(=O)OC(C)C)c2ccccc2)cc1Cl (racemic) [Example 56] | ++ (++ = 75-100% control of plant disease) | ++ (++ = 75-100% control of plant disease) | ++ (++ = 75-100% control of plant disease) | ++ (++ = 75-100% control of plant disease)
5 | CNC(=O)C(=NOC)c1ccccc1COc1ncc(C(O)c2ccccc2C(F)(F)F)cc1Cl (stereo not shown) [Example 81] | ++ (++ = 75-100% control of plant disease) | ++ (++ = 75-100% control of plant disease) | + (+ = 25-74% control of plant disease) | ++ (++ = 75-100% control of plant disease)
6 | CNC(=O)C(=NOC)c1ccccc1COc1ncc(C(O)c2ccc3ccccc3c2)cc1Cl (racemic) [Example 49] | ++ (++ = 75-100% control of plant disease) | ++ (++ = 75-100% control of plant disease) | ++ (++ = 75-100% control of plant disease) | ++ (++ = 75-100% control of plant disease)
7 | CCCCOC(C)c1cnc(OCc2ccccc2C(=NOC)C(=O)NC)c(Cl)c1 (stereo not shown) [Example 80] | ++ (++ = 75-100% control of plant disease) | ++ (++ = 75-100% control of plant disease) | ++ (++ = 75-100% control of plant disease) | − (− = 0-24% control of plant disease)
8 | CNC(=O)C(=NOC)c1ccccc1COc1ncc(C(OC(C)=O)c2ccccc2)cc1Cl (racemic) [Example 28] | − (− = 0-24% control of plant disease) | ++ (++ = 75-100% control of plant disease) | ++ (++ = 75-100% control of plant disease) | − (− = 0-24% control of plant disease)
9 | CNC(=O)C(=NOC)c1ccccc1COc1ncc(C(O)c2cccc(C)c2)cc1Cl (stereo not shown) [Example 85] | ++ (++ = 75-100% control of plant disease) | ++ (++ = 75-100% control of plant disease) | ++ (++ = 75-100% control of plant disease) | − (− = 0-24% control of plant disease)
10 | CNC(=O)C(=NOC)c1ccccc1COc1ncc(C(O)C(C)C)cc1Cl (racemic) [Example 43] | ++ (++ = 75-100% control of plant disease) | ++ (++ = 75-100% control of plant disease) | + (+ = 25-74% control of plant disease) | ++ (++ = 75-100% control of plant disease)
11 | CNC(=O)C(=NOC)c1ccccc1COc1ncc(C(C)Oc2ccc(OC)cc2)cc1Cl (stereo not shown) [Example 89] | ++ (++ = 75-100% control of plant disease) | ++ (++ = 75-100% control of plant disease) | ++ (++ = 75-100% control of plant disease) | ++ (++ = 75-100% control of plant disease)
12 | CNC(=O)C(=NOC)c1ccccc1COc1ncc(C(OC(C)=O)c2ccccc2C(F)(F)F)cc1Cl (stereo not shown) [Example 88] | ++ (++ = 75-100% control of plant disease) | ++ (++ = 75-100% control of plant disease) | ++ (++ = 75-100% control of plant disease) | ++ (++ = 75-100% control of plant disease)
13 | CNC(=O)C(=NOC)c1ccccc1COc1ncc(C(C)OC(=O)C(C)(C)C)cc1Cl (racemic) [Example 24] | ++ (++ = 75-100% control of plant disease) | ++ (++ = 75-100% control of plant disease) | ++ (++ = 75-100% control of plant disease) | − (− = 0-24% control of plant disease)
14 | CNC(=O)C(=NOC)c1ccccc1COc1ncc(C(O)c2ccccc2)cc1Cl (racemic) [Example 1] | ++ (++ = 75-100% control of plant disease) | ++ (++ = 75-100% control of plant disease) | ++ (++ = 75-100% control of plant disease) | ++ (++ = 75-100% control of plant disease)
15 | CNC(=O)C(=NOC)c1ccccc1COc1ncc(C(O)c2cccc3ccccc23)cc1Cl (stereo not shown) [Example 103] | + (+ = 25-74% control of plant disease) | ++ (++ = 75-100% control of plant disease) | ++ (++ = 75-100% control of plant disease) | ++ (++ = 75-100% control of plant disease)
16 | CNC(=O)C(=NOC)c1ccccc1COc1ncc(C(O)c2ccccn2)cc1Cl (stereo not shown) [Example 105] | ++ (++ = 75-100% control of plant disease) | ++ (++ = 75-100% control of plant disease) | ++ (++ = 75-100% control of plant disease) | ++ (++ = 75-100% control of plant disease)
17 | CCOC(c1ccccc1)c1cnc(OCc2ccccc2C(=NOC)C(=O)NC)c(Cl)c1 (stereo not shown) [Example 69] | ++ (++ = 75-100% control of plant disease) | ++ (++ = 75-100% control of plant disease) | ++ (++ = 75-100% control of plant disease) | − (− = 0-24% control of plant disease)
18 | CNC(=O)C(=NOC)c1ccccc1COc1ncc(C(OC(=O)OC)c2ccccc2)cc1Cl (stereo not shown) [Example 68] | ++ (++ = 75-100% control of plant disease) | ++ (++ = 75-100% control of plant disease) | − (− = 0-24% control of plant disease) | ++ (++ = 75-100% control of plant disease)
19 | CNC(=O)C(=NOC)c1ccccc1COc1ncc(C(O)c2ccsc2)cc1Cl (stereo not shown) [Example 109] | ++ (++ = 75-100% control of plant disease) | ++ (++ = 75-100% control of plant disease) | ++ (++ = 75-100% control of plant disease) | ++ (++ = 75-100% control of plant disease)
20 | CNC(=O)C(=NOC)c1ccccc1COc1ncc(C(OC(C)=O)c2ccc3c(c2)OCO3)cc1Cl (racemic) [Example 60] | ++ (++ = 75-100% control of plant disease) | ++ (++ = 75-100% control of plant disease) | ++ (++ = 75-100% control of plant disease) | ++ (++ = 75-100% control of plant disease)
21 | CNC(=O)C(=NOC)c1ccccc1COc1ncc(C(O)(CO)c2ccccc2)cc1Cl (stereo not shown) [Example 86] | − (− = 0-24% control of plant disease) | ++ (++ = 75-100% control of plant disease) | − (− = 0-24% control of plant disease) | ++ (++ = 75-100% control of plant disease)
22 | CNC(=O)C(=NOC)c1ccccc1COc1ncc(C(O)c2ccc(C(F)(F)F)cc2)cc1Cl (stereo not shown) [Example 102] | ++ (++ = 75-100% control of plant disease) | ++ (++ = 75-100% control of plant disease) | ++ (++ = 75-100% control of plant disease) | ++ (++ = 75-100% control of plant disease)
23 | CNC(=O)C(=NOC)c1ccccc1COc1ncc(C(OC2CCCCO2)c2ccccc2)cc1Cl (mixture of isomers) [Example 57] | ++ (++ = 75-100% control of plant disease) | ++ (++ = 75-100% control of plant disease) | ++ (++ = 75-100% control of plant disease) | ++ (++ = 75-100% control of plant disease)
24 | CNC(=O)C(=NOC)c1ccccc1COc1ncc(C(OC)c2ccccc2)cc1Cl (racemic) [Example 38] | + (+ = 25-74% control of plant disease) | ++ (++ = 75-100% control of plant disease) | ++ (++ = 75-100% control of plant disease) | − (− = 0-24% control of plant disease)
25 | CNC(=O)C(=NOC)c1ccccc1COc1ncc(C(C)OCc2cccc(OC)c2)cc1Cl (racemic) [Example 62] | ++ (++ = 75-100% control of plant disease) | ++ (++ = 75-100% control of plant disease) | ++ (++ = 75-100% control of plant disease) | − (− = 0-24% control of plant disease)
